pKd: −log10 of the molar value. In brackets after ≈: the same amount, converted by molar mass. Activity calls are given as the source filed them. The calls are words filed in the database; no cut-off is given here.
Tests used:
Enterococcus faecium [1] = assay: Antimicrobial activity against Enterococcus faecium QF31 harboring erythromycin resistance rRNA methylase B and chloramphenicol-florfenicol resistance methylase assessed as inhibition of visible growth of bacteria incubated for 20 hrs by broth microdilution method; type: functional
Streptococcus suis [2] = assay: Antimicrobial activity against Streptococcus suis P1/7 assessed as inhibition of visible growth of bacteria incubated for 20 hrs by broth microdilution method; type: functional
Staphylococcus aureus [3] = assay: Antimicrobial activity against Staphylococcus aureus YZSA-15 harboring erythromycin resistance rRNA methylase C and vancomycin resistance locus assessed as inhibition of visible growth of bacteria incubated for 20 hrs by broth microdilution method; type: functional
Staphylococcus aureus [4] = assay: Antimicrobial activity against Staphylococcus aureus YZSA-21 harboring erythromycin resistance rRNA methylase C assessed as inhibition of visible growth of bacteria incubated for 20 hrs by broth microdilution method; type: functional
Staphylococcus aureus [5] = assay: Antimicrobial activity against Staphylococcus aureus YZSA-24 harboring erythromycin resistance rRNA methylase C and methicillin resistance gene resistance locus assessed as inhibition of visible growth of bacteria incubated for 20 hrs by broth microdilution method; type: functional
Staphylococcus aureus [6] = assay: microbe, parasite or virus in culture; type: functional; details: M92-1, time 20 hrs
Description: Antimicrobial activity against Staphylococcus aureus M92-1 harboring erythromycin resistance rRNA methylase B, tetracycline efflux protein L and oxazolidinone-phenicol transferable resistance gene assessed as inhibition of visible growth of bacteria incubated for 20 hrs by broth microdilution method

Staphylococcus aureus [7] = assay: microbe, parasite or virus in culture; type: functional; details: M147-2, time 20 hrs
Description: Antimicrobial activity against Staphylococcus aureus M147-2 harboring erythromycin resistance rRNA methylase B, tetracycline efflux protein L and chloramphenicol-florfenicol resistance methylase assessed as inhibition of visible growth of bacteria incubated for 20 hrs by broth microdilution method

Enterococcus faecium [8] = assay: Antimicrobial activity against Enterococcus faecium HFY01 assessed as inhibition of visible growth of bacteria incubated for 20 hrs by broth microdilution method; type: functional
Enterococcus faecium [9] = assay: Antimicrobial activity against Enterococcus faecium MC38 harboring erythromycin resistance rRNA methylase B and oxazolidinone-phenicol transferable resistance gene assessed as inhibition of visible growth of bacteria incubated for 20 hrs by broth microdilution method; type: functional
Enterococcus faecalis = assay: Antimicrobial activity against Enterococcus faecalis JH2-2 assessed as inhibition of visible growth of bacteria incubated for 20 hrs by broth microdilution method; type: functional
Streptococcus suis [10] = assay: microbe, parasite or virus in culture; type: functional; details: SH0918, time 20 hrs
Description: Antimicrobial activity against Streptococcus suis SH0918 harboring erythromycin-resistance rRNA methylase B, tetracycline efflux protein O and oxazolidinone phenicol transferable resistance gene assessed as inhibition of visible growth of bacteria incubated for 20 hrs by broth microdilution method

Streptococcus agalactiae = assay: Antimicrobial activity against Streptococcus agalactiae DL03 harboring erythromycin-resistance rRNA methylase B assessed as inhibition of visible growth of bacteria incubated for 20 hrs by broth microdilution method; type: functional
Salmonella enteritidis = assay: Antimicrobial activity against Salmonella enteritis S1 assessed as inhibition of visible growth of bacteria incubated for 20 hrs by broth microdilution method; type: functional, Salmonella enterica subsp. enterica serovar Enteritidis; details: Salmonella enterica
Acinetobacter baumannii = assay: Antimicrobial activity against Acinetobacter baumannii AB11 assessed as inhibition of visible growth of bacteria incubated for 20 hrs by broth microdilution method; type: functional
Pseudomonas aeruginosa [11] = assay: Antimicrobial activity against Pseudomonas aeruginosa PA01 assessed as inhibition of visible growth of bacteria incubated for 20 hrs by broth microdilution method; type: functional
Pseudomonas aeruginosa [12] = assay: Antimicrobial activity against Pseudomonas aeruginosa PA14 assessed as inhibition of visible growth of bacteria incubated for 20 hrs by broth microdilution method; type: functional
[13] = Cytotoxicity against human HEp-2 cells assessed as cell viability at 16 times of MIC incubated for 48 hrs by CCK8 assay (reference value: 100 %); type: toxicity, cell-based; details: read-out: Activity
[14] = Cytotoxicity against human HEp-2 cells assessed as cell viability at 2 times of MIC incubated for 48 hrs by CCK8 assay (reference value: 100 %); type: toxicity, cell-based; details: read-out: Activity
[15] = Cytotoxicity against human Caco-2 cells assessed as cell viability at 16 times of MIC incubated for 48 hrs by CCK8 assay (reference value: 99.54 %); type: toxicity, cell-based; details: read-out: Activity
[16] = Cytotoxicity against human Caco-2 cells assessed as cell viability at 1 time of MIC incubated for 48 hrs by CCK8 assay (reference value: 99.54 %); type: toxicity, cell-based; details: read-out: Activity
[17] = Hemolytic activity in Kunming mouse erythrocytes measured after 1 hrs by absorbance based assay; type: toxicity, cell-based, Erythrocyte
[18] = Hemolytic activity in Kunming mouse erythrocytes assessed as hemolysis at 16 times of MIC measured after 1 hrs by absorbance based assay relative to control; type: toxicity, cell-based, Erythrocyte; details: read-out: Activity
[19] = Acute toxicity in ICR mouse model assessed as effect on animal survival at 25 to 100 mg/kg, IG administered for 7 days; type: organism-based; details: in vivo, po, 168 h, dose 25-100 mg/kg, time 7 day
[20] = Acute toxicity in ICR mouse model assessed as change in body weight at 25 to 100 mg/kg, IG administered for 7 days; type: organism-based; details: in vivo, po, 168 h, dose 25-100 mg/kg, time 7 day
[21] = Acute toxicity in ICR mouse model assessed as change in heart pathology at 25 to 100 mg/kg, IG administered for 7 days by H and E staining based analysis; type: organism-based; details: in vivo, po, 168 h, dose 25-100 mg/kg, time 7 day
[22] = Acute toxicity in ICR mouse model assessed as change in lung pathology at 25 to 100 mg/kg, IG administered for 7 days by H and E staining based analysis; type: organism-based; details: in vivo, po, 168 h, dose 25-100 mg/kg, time 7 day
Signal peptidase I = Signal peptidase I (Escherichia coli K-12, UniProt P00803); assay: Binding affinity to recombinant 6His-tagged Escherichia coli LepB (77 to 324 residues) extracted from Escherichia coli BL21 (DE3) cells assessed as dissociation constant by MST analysis
Cell membrane = assay: Disruption of cell membrane integrity in Staphylococcus aureus ATCC 29213 assessed as appearance of rupture surface at 0.5 to 2 times of MIC by scanning electron microscopic analysis; type: subcellular
Staphylococcus aureus [23] = assay: Antibiofilm activity against Staphylococcus aureus ATCC 29213 assessed as eradication of preformed biofilm by measuring residual biomass at 2 microg/ml measured after 72 hrs by crystal violet staining based analysis relative to control; type: functional; details: dose 2 µg/ml
Staphylococcus aureus [24] = assay: Disruption of preformed biofilm in Staphylococcus aureus ATCC 29213 at 1 microg/ml measured after 72 hrs by crystal violet staining based analysis relative to control; type: functional; details: dose 1 µg/ml
Staphylococcus aureus [25] = assay: Disruption of preformed biofilm in Staphylococcus aureus ATCC 29213 assessed as increase in red fluorescence at 0.5 to 2 times of MIC measured after 72 hrs by SYTO-9/PI staining based CLSM imaging analysis; type: functional, organism-based
[26] = Metabolic stability in rat liver microsomes assessed as intrinsic clearance at 100 uM preincubated for 5 mins followed by NADPH addition and measured upto 60 mins by LC-MS/MS analysis; type: ADME, Microsome; details: time < 65 min, read-out: CLH
[27] = Metabolic stability in mouse liver microsomes assessed as intrinsic clearance at 100 uM preincubated for 5 mins followed by NADPH addition and measured upto 60 mins by LC-MS/MS analysis; type: ADME, Microsome; details: time < 65 min, read-out: CLH
[28] = Metabolic stability in rat liver microsomes assessed as hepatic extraction ratio at 100 uM preincubated for 5 mins followed by NADPH addition and measured upto 60 mins by LC-MS/MS analysis; type: ADME, Microsome; details: time < 65 min, read-out: ERH
Staphylococcus aureus [29] = assay: (§1) Antibacterial activity against methicillin-resistant Staphylococcus aureus YZSA-24 infected in cyclophosphamide-induced neutrophil depleted female ICR mouse model of skin infection assessed as log reduction in bacterial load at 1 %, TOP preadministered with cyclophosphamide for 5 days followed by bacterial administration and measured after 25 hrs of compound administration relative to vehicle group; type: functional
Staphylococcus aureus [30] = assay: as §1, with “2.5” for “1”; type: functional
Staphylococcus aureus [31] = assay: as §1, with “2.5” for “1”, “[…]” for “vehicle”; type: functional

Signal peptidase I, sequence (P00803 whole entry, the tested form may be a part): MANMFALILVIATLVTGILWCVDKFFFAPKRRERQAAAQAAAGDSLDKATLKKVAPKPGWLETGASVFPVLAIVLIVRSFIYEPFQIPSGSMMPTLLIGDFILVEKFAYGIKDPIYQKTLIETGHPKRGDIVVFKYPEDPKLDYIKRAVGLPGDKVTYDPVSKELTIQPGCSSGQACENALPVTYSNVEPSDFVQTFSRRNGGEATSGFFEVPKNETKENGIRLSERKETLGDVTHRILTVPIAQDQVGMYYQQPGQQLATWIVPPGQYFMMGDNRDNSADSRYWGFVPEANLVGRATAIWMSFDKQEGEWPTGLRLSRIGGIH

For `CC1C/C(=C\c2ccc(-c3ccc(Cl)c(C(F)(F)F)c3)s2)c2nc3ccccc3c(C(=O)O)c2C1` (racemic), which MIC (Enterococcus faecium [1]) is on record?
The MIC was 2 µg/mL (≈ 3.89 µM).

What about the MIC (Streptococcus suis [2]) of the same compound?
The MIC was 16 µg/mL (≈ 31.1 µM).

What about the MIC (Staphylococcus aureus [3]) of the same compound?
The MIC was 1 µg/mL (≈ 1.95 µM).

What about the MIC (Staphylococcus aureus [4]) of the same compound?
Its MIC is 1 µg/mL (≈ 1.95 µM).

What about the MIC (Staphylococcus aureus [5]) of the same compound?
The MIC was 1 µg/mL (≈ 1.95 µM).

What about the MIC (Staphylococcus aureus [6]) of the same compound?
The MIC was 1 µg/mL (≈ 1.95 µM).

What about the MIC (Staphylococcus aureus [7]) of the same compound?
Its MIC is 1 µg/mL (≈ 1.95 µM).

And the MIC (Enterococcus faecium [8])?
The MIC was 2 µg/mL (≈ 3.89 µM).

And the MIC (Enterococcus faecium [9])?
Its MIC is 2 µg/mL (≈ 3.89 µM).

What about the MIC (Enterococcus faecalis) of the same compound?
Its MIC is 1 µg/mL (≈ 1.95 µM).

What about the MIC (Streptococcus suis [10]) of the same compound?
Its MIC is 16 µg/mL (≈ 31.1 µM).

And the MIC (Streptococcus agalactiae)?
Its MIC is 32 µg/mL (≈ 62.3 µM).

And the MIC (Salmonella enteritidis)?
The MIC was 128 µg/mL (≈ 249 µM).

What about the MIC (Acinetobacter baumannii) of the same compound?
The MIC was over 128 µg/mL.

And the MIC (Pseudomonas aeruginosa [11])?
Its MIC is over 128 µg/mL.

What about the MIC (Pseudomonas aeruginosa [12]) of the same compound?
Its MIC is over 128 µg/mL.

What about the viability at 48 h, 16 times of MIC [13] of the same compound?
The viability at 48 h, 16 times of MIC was 44.5%.

And the viability at 48 h, 2 times of MIC [14]?
Its viability at 48 h, 2 times of MIC is 93.7%.

What about the viability at 48 h, 16 times of MIC [15] of the same compound?
Its viability at 48 h, 16 times of MIC is 61.7%.

What about the viability at 48 h, 1 time of MIC [16] of the same compound?
The viability at 48 h, 1 time of MIC was 96.6%.

And the HC50 at 1 h [17]?
The HC50 at 1 h was 13.3 µg/mL.

And the hemolysis at 1 h, 16 times of MIC [18]?
Its hemolysis at 1 h, 16 times of MIC is 74%.

What about the Activity [19] of the same compound?
The Activity was “Non-toxic”.

And the Activity [20]?
The Activity was “Non-toxic”.

And the Activity [21]?
Its Activity is “Non-toxic”.

And the Activity [22]?
Its Activity is “Non-toxic”.

And the pKd (Signal peptidase I)?
The pKd was 4.87.

What about the Activity (Cell membrane) of the same compound?
Its Activity is “Active”.

What about the Activity (Staphylococcus aureus [23]) of the same compound?
Its Activity is 31.4%.

And the Activity (Staphylococcus aureus [24])?
Its Activity is about 50%.

What about the Activity (Staphylococcus aureus [25]) of the same compound?
Its Activity is “Active”.

What about the microsomal CLint at 100 µM [26] of the same compound?
Its microsomal CLint at 100 µM is under 7.5 µL/min/mg.

What about the microsomal CLint at 100 µM [27] of the same compound?
Its microsomal CLint at 100 µM is under 7.5 µL/min/mg.

What about the hepatic extraction ratio at 1 h, 100 µM [28] of the same compound?
Its hepatic extraction ratio at 1 h, 100 µM is under 0.21.

And the Activity (Staphylococcus aureus [29])?
The Activity was 1.27 log10CFU/ml.

And the Activity (Staphylococcus aureus [30])?
Its Activity is 2.36 log10CFU/ml.

And the Activity (Staphylococcus aureus [31])?
Its Activity is 2.3 log10CFU/ml.
